Values quoted from earlier work in US20250161389A1, “Herbal composition for the treatment of malaria” (RNA Therapeutics, Inc., priority 2023, published 2025).

Test system: Plasmodium
Conditions: isolated compound, best activity

C=C(C)[C@@H]1CC[C@@]2(C)[C@H]1[C@@H]1CC[C@@H]3[C@@]4(C)CCC(=O)C(C)(C)[C@@H]4[C@H](O)C[C@@]3(C)[C@]1(C)C[C@@H]2O [resinone (39), resinone]
IC50: < 1 µg/mL
